Structures can show the parent of a compound that is named as a salt. Blank lines part the entries; values can stand above or below the molecule they belong to.
Tests used:
[1] = tested on: ART (antigen-responding T-cell); assay: In vitro ART (antigen-responding T-cell) proliferation test; type: cell-based, Lewis rat; settings: Rattus norvegicus, T-cell, read-out: % Inhibition of ART growth
[2] = tested on: Rat carrageenin pedal edema; assay: Rat carrageenin pedal edema inhibitory activity; type: in vivo, rat (Jcl: SD); settings: 50 mg/kg, orally, 3 hours after carrageenin; for inhibition in vivo at 50 mg/kg: Rattus norvegicus, po, 3 h, read-out: Inhibitory percentage (carrageenin pedal edema)
Procedure: Rat Carrageenin Pedal Edema Inhibitory Activity A Jcl: SD male rat (6 weeks old, weight 160-220 g) was used. After the mesurement of the volume of the dexter hind limb foot pad, a test compound suspended in 5% gum arabic solution was administered orally. Immediately after the administration, water was further administered orally so that the total administration volume of liquid became 5 ml/rat. After one hour, 0.05 ml of 1% carrageenin suspension in physiological saline was injected subcutaneously in the foot pad to induce edema [Winter, […]. and Nuss, G. W.: Proc. Soc. exp. […] Three hours after injection of carrageenin, the volume of the dexter limb was measured, and the edema volume was calculated by the difference between the volume after injection and the volume prior to injection.

[3] = tested on: brewer's yeast induced pyrexia; assay: Antipyretic activity (brewer's yeast induced pyrexia); type: in vivo, rat (DS line); settings: 50 mg/kg, orally; for Antipyretic activity, .increment. °C.: at peak time
Procedure: Antipyretic Activity Six male DS line rats, 7 weeks old, weighing 200 to 240 g (Nihon Clea) per one group were used. According to the method of Winder et al. (J. Pharmac. Exp. Ther. 138: 405 (1963)), a suspension of 15% brewer's yeast (Sigma) in physiological saline (1 ml/100 g, b.w.) was injected subcutaneously at 16 hours before measurement of the body temperature to induce pyrexia. After injection of yeast, only water was provided, and each rat was bred separately in a five duplicate cage. At 16, 17 and 18 hours after yeast injection, the rectal temperature was measured by a thermistor thermometer (Takara Kogyo K.K.), and this was taken as the basal body temperature. […] Animals having the body temperature of not lower than 38.5° C. at 18 hours after yeast injection were selected, and a test compound was administered orally (1 ml/100 g, b.w.). As a control, only the solvent was provided. Upon administration, the body temperature of the control group and that of the test compound-administered group were adjusted to the same temperature. The rectal temperature was measured every hour till five hours after administration.

[4] = tested on: Mouse phenylquinone writhing; assay: Mouse phenylquinone writhing inhibitory activity; type: in vivo, mouse (Slc: ICR); settings: Mus musculus, po, 20 min, 50 mg/kg, orally; read-out: Inhibitory percentage (phenylquinone writhing)
Procedure: Mouse Phenylquinone Writhing Inhibitory Activity A Slc: ICR male mouse (4 weeks, weight 17 to 24 g) was used. A test compound suspended in 5% gum arabic solution was administered orally. After 30 minutes, 0.1 ml/10 g body weight of 0.02% phenylquinone solution in water (dissolved by the aid of 5% ethanol) was injected intraperitoneally, and writhing and stretching responses of individual animals were measured for 20 minutes [Siegmund, E., Cadmus, R. and Lu, G.; Proc. Soc. exp. Biol. Med. 95, (1957)].

cyclooxygenase = target: T1, cyclooxygenase (Rattus norvegicus, UniProt Q63921); assay: Cyclooxygenase inhibitory activity (HHT formation from arachidonic acid in rat platelet-rich plasma); type: cell-based, rat (Jcl:wistar)
T1 construct: from tissue; host or cells: platelets in platelet-rich plasma from rat abdominal aorta blood (Jcl:wistar, male)
T1 sequence (Q63921 27-602): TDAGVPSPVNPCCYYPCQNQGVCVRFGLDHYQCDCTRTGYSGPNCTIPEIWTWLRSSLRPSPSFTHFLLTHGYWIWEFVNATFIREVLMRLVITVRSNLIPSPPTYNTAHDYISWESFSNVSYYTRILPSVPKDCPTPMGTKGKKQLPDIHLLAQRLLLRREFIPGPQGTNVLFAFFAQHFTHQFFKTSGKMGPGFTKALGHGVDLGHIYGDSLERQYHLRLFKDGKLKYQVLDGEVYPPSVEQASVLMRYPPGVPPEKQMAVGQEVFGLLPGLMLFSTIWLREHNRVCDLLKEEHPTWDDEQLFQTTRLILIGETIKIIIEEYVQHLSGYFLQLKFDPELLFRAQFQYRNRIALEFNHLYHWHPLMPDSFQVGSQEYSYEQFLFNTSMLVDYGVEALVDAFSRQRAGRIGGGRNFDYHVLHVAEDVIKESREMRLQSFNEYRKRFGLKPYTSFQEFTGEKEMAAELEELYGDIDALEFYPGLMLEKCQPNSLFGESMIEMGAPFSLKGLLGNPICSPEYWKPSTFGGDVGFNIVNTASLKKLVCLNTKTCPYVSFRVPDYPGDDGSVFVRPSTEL

Structure (SMILES): Cl.O=C1c2ccccc2C(=O)N1COc1ccncc1 [Example 116, 4-phthalimidomethyloxypyridine hydrochloride]
inhibition at 1 µM [1]: 10% | inhibition at 10 µM [1]: 31% | Inhibitory percentage (carrageenin pedal edema) [2]: 45% | Antipyretic activity, peak time [3]: 3 h | Antipyretic activity, .increment. °C. [3]: -0.63 °C

Structure (SMILES): O=C(NCCCSc1ccccn1)c1cccs1 [Example 47, 2-[3-(thenoylamino)propylthio]pyridine]
inhibition in vivo at 50 mg/kg [2]: 25% | inhibition in vivo at 50 mg/kg [4]: 47%

Structure (SMILES): Cl.Cl.O=C(NCCCOc1ccncc1)c1ccccn1 [Example 126, 4-[3-(2-picolinoylamino)propyloxy]pyridine dihydrochloride]
inhibition in vivo at 50 mg/kg [2]: 30% | Antipyretic activity, peak time [3]: 2 h | Antipyretic activity, .increment. °C. [3]: -1.21 °C

Structure (SMILES): O=C1c2ccccc2C(=O)N1CSc1cccnc1 [Example 63, 3-(phthalimidomethylthio)pyridine]
inhibition in vivo at 50 mg/kg [2]: 34% | inhibition in vivo at 50 mg/kg [4]: 56%

Structure (SMILES): O=C1c2ccccc2C(=O)N1COc1ccncc1 [Example 65, 4-(phthalimidomethyloxy)pyridine]
inhibition in vivo at 50 mg/kg [2]: 39% | inhibition in vivo at 50 mg/kg [4]: 80% | Antipyretic activity, peak time [3]: 4 h | Antipyretic activity, .increment. °C. [3]: -0.62 °C

Structure (SMILES): Cl.O=C1c2ccccc2C(=O)N1CCCOc1ccncc1 [Example 113, 4-(3-phthalimidopropyloxy)pyridine hydrochloride]
inhibition in vivo at 50 mg/kg [2]: 35% | Antipyretic activity, peak time [3]: 4 h | Antipyretic activity, .increment. °C. [3]: -0.82 °C

Structure (SMILES): O=C(N(CCCSc1ccncc1)Cc1cccs1)C(F)(F)F [Example 68, 4-[3-[N-(2-thienylmethyl)-N-trifluoroacetylamino]propylthio]pyridine hydrochloride]
inhibition in vivo at 50 mg/kg [2]: 23% | inhibition in vivo at 50 mg/kg [4]: 50%

Structure (SMILES): O=C1c2ccccc2C(=O)N1CCCCOc1ccncc1 [Example 114, 4-(4-phthalimidobutyloxy)pyridine hydrochloride]
inhibition in vivo at 50 mg/kg [2]: 28% | Antipyretic activity, .increment. °C. ([3]; hydrochloride): -1.14 °C | Antipyretic activity, peak time ([3]; hydrochloride): 4 h

Structure (SMILES): O=C(NCCCSc1ccncc1)c1ccccn1 [Example 42, 4-[3-(2-picolynoylamino)propylthio]pyridine]
IC50 (cyclooxygenase): 13.1 µM | inhibition in vivo at 50 mg/kg [2]: 34% | inhibition in vivo at 50 mg/kg [4]: 51% | Antipyretic activity, peak time [3]: 1 h | Antipyretic activity, .increment. °C. [3]: -0.80 °C

The next lines start with results.

IC50 (cyclooxygenase): 4.9 µM
Structure (SMILES): CC(=O)N(CCCSc1ccncc1)Cc1cccs1 [Example 90]
inhibition at 1 µM [1]: 34% | inhibition at 10 µM [1]: 49% | inhibition in vivo at 50 mg/kg [2]: 21% | inhibition in vivo at 50 mg/kg [4]: 53%

IC50 (cyclooxygenase): 3.5 µM
Structure (SMILES): Cc1ccc(C(=O)NCCCSc2ccncc2)s1 [Example 59, 4-[3-(5-methylthenoylamino)propylthio]pyridine]
inhibition in vivo at 50 mg/kg [2]: 35% | inhibition in vivo at 50 mg/kg [4]: 49%

IC50 (cyclooxygenase): 3.2 µM
Structure (SMILES): O=C1c2ccccc2CN1CCCOc1ccncc1 [Example 101, 4-[3-(isoindolin-1-on-2-yl)propyloxy]pyridine]
inhibition at 1 µM [1]: 39% | inhibition at 10 µM [1]: 12% | inhibition in vivo at 50 mg/kg [2]: 26% | inhibition in vivo at 50 mg/kg [4]: 66%

IC50 (cyclooxygenase): 7.9 µM
Structure (SMILES): O=C(NCCCSc1ccncc1)c1cc(Br)c(Br)s1 [Example 58, 4-[3-(4,5-dibromothenoylamino)propylthio]pyridine]
inhibition in vivo at 50 mg/kg [2]: 48% | inhibition in vivo at 50 mg/kg [4]: 34%

IC50 (cyclooxygenase): 7.9 µM
Structure (SMILES): O=C(NCCCSc1ccncc1)c1cccs1 [Example 46, 4-[3-(2-thenoylamino)propylthio]pyridine]
inhibition in vivo at 50 mg/kg [2]: 39% | inhibition in vivo at 50 mg/kg [4]: 66% | Antipyretic activity, peak time [3]: 4 h | Antipyretic activity, .increment. °C. [3]: -4.08 °C

IC50 (cyclooxygenase): 3.6 µM
Structure (SMILES): O=C(NCCCSc1ccncc1)c1cc2ccccc2s1 [Example 57, 4-[3-(thianaphtene-2-carbonylamino)propylthio]pyridine]
inhibition in vivo at 50 mg/kg [2]: 35% | inhibition in vivo at 50 mg/kg [4]: 71% | Antipyretic activity, peak time [3]: 4 h | Antipyretic activity, .increment. °C. [3]: -1.28 °C

IC50 (cyclooxygenase): 13 µM
Structure (SMILES): O=C(NCCCSc1ccncc1)c1ccncc1 [Example 43, 4-[3-(4-picolynoylamino)propylthio]pyridine]
inhibition in vivo at 50 mg/kg [2]: 24% | inhibition in vivo at 50 mg/kg [4]: 48%

IC50 (cyclooxygenase): 8.7 µM
Structure (SMILES): O=C(Cc1cccs1)NCCCSc1ccncc1 [Example 55, 4-[3-(2-thienylacetylamino)propylthio]pyridine]
inhibition in vivo at 50 mg/kg [2]: 41% | inhibition in vivo at 50 mg/kg [4]: 58%

IC50 (cyclooxygenase): 13 µM
Structure (SMILES): CNC(=O)c1ccccc1C(=O)NCSc1ccncc1 [Example 112, 4-[(2-methylcarbamoylbenzoyl)aminomethylthio]pyridine]
inhibition in vivo at 50 mg/kg [2]: 42% | Antipyretic activity, peak time [3]: 3 h | Antipyretic activity, .increment. °C. [3]: -1.58 °C

IC50 (cyclooxygenase): 8 µM
Structure (SMILES): O=C(NCCCOc1ccncc1)c1ccccc1CO [Example 100, 4-[3-(2-hydroxymethylbenzoyl)aminopropyloxy]pyridine]
inhibition at 1 µM [1]: 19% | inhibition at 10 µM [1]: 32% | inhibition in vivo at 50 mg/kg [2]: 22%

IC50 (cyclooxygenase): 5.1 µM
Structure (SMILES): O=C1c2ccccc2CN1CCSc1ccncc1 [Example 105, 4-[2-(isoindolin-1-on-2-yl)ethylthio]pyridine]
inhibition at 1 µM [1]: -4% | inhibition at 10 µM [1]: -49% | inhibition in vivo at 50 mg/kg [2]: 31% | inhibition in vivo at 50 mg/kg [4]: 59%

IC50 (cyclooxygenase): 9 µM
Structure (SMILES): O=C(NCCCSc1ccncc1)c1ccsc1 [Example 54, 4-[3-(3-thiophenecarbonylamino)propylthio]pyridine]
inhibition in vivo at 50 mg/kg [2]: 45% | inhibition in vivo at 50 mg/kg [4]: 58% | Antipyretic activity, peak time [3]: 5 h | Antipyretic activity, .increment. °C. [3]: -3.50 °C
